# Data taken from US12404241B2 (Celgene Corporation, priority 2018, dated 2025).
# Target: T1, AR (Homo sapiens, UniProt P10275)
# T1 construct: endogenous in cells; host or cells: VCaP cells
# T1 sequence (P10275 1-920): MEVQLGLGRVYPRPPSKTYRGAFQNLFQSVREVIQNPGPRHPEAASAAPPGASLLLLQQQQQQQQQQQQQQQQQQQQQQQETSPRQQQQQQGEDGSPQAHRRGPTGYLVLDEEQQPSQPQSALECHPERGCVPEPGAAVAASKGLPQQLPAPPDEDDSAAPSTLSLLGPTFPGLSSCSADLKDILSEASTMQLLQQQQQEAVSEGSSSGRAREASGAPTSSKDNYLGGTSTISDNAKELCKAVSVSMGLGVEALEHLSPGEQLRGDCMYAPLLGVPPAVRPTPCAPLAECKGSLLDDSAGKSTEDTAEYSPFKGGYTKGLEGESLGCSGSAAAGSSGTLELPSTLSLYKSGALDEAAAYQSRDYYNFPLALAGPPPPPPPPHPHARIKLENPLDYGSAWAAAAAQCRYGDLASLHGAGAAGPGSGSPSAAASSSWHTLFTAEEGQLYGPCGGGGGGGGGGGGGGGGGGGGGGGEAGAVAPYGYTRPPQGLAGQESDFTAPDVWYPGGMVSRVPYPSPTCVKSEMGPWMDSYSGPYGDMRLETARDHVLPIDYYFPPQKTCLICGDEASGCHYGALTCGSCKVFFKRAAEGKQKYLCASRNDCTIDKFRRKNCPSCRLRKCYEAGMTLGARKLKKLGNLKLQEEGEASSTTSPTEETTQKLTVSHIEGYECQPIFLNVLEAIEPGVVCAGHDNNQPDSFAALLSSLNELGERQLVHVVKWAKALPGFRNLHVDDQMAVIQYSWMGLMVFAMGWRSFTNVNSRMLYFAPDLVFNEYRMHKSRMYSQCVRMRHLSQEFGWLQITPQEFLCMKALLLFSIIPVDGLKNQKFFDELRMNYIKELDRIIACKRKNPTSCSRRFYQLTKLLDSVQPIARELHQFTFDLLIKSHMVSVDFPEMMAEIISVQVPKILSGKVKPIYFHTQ
# Assay: VCAP AR Degradation Assay
# Assay type: cell-based
# Details: for Y (AR degradation efficiency, % of DMSO control): class symbols *; for DC50: class symbols A-C, read-out: DC50
# Summary of the method: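 AR protein in lysates quantified by sandwich ELISA after 24 h exposure of VCaP cells at 37 °C to 10 concentrations (1:3 steps, 5 μM top, final). Four-parameter logistic fit of percent-of-DMSO levels gave DC50 (50% degradation), EC50 and minimal AR level Y.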
SMILES,"Y (AR degradation efficiency, % of DMSO control)",DC50 [nM]
"CCc1cc(N2C(=S)N(c3ccc(C#N)c(C(F)(F)F)c3)C(=O)C2(C)C)ccc1OCCN1CCN(CC(=O)Nc2cc(F)cc(NC3CCC(=O)NC3=O)c2)C2(CC2)C1 (stereo not shown) [Example 109, 2-(7-(2-(4-(3-(4-cyano-3-(trifluoromethyl)phenyl)-5,5-dimethyl-4-oxo-2-thioxoimidazolidin-1-yl)-2-ethylphenoxy)ethyl)-4,7-diazaspiro[2.5]octan-4-yl)-N-(3-(2,6-dioxopiperidin-3-ylamino)-5-fluorophenyl)acetamide]",* (0<Y<=25%),< 100
"C[C@@H]1CN(CCOc2ccc(N3C(=S)N(c4ccc(C#N)c(C(F)(F)F)c4)C(=O)C34CCC4)cc2CCF)CCN1CC(=O)Nc1cc(Cl)cc(NC2CCC(=O)NC2=O)c1 (stereo partly drawn) [Example 143, N-(3-chloro-5-(2,6-dioxopiperidin-3-ylamino)phenyl)-2-((R)-4-(2-(4-(7-(4-cyano-3-(trifluoromethyl)phenyl)-8-oxo-6-thioxo-5,7-diazaspiro[3.4]octan-5-yl)-2-(2-fluoroethyl)phenoxy)ethyl)-2-methylpiperazin-1-yl)acetamide]",* (0<Y<=25%),< 100
"CC1(C)C(=O)N(c2cnc(C#N)c(C(F)(F)F)c2)C(=S)N1c1ccc(OCCN2CCN(CC(=O)Nc3cc(NC4CCC(=O)NC4=O)ccc3F)CC2)c(CC(F)F)c1 (stereo not shown) [Example 66, 2-(4-(2-(4-(3-(6-cyano-5-(trifluoromethyl)pyridin-3-yl)-5,5-dimethyl-4-oxo-2-thioxoimidazolidin-1-yl)-2-(2,2-difluoroethyl)phenoxy)ethyl)piperazin-1-yl)-N-(5-(2,6-dioxopiperidin-3-ylamino)-2-fluorophenyl)acetamide]",* (0<Y<=25%),< 100
"CCc1cc(N2C(=S)N(c3cnc(C#N)c(C(F)(F)F)c3)C(=O)C23CCC3)ccc1OCCN1CCN(CC(=O)Nc2cccc(NC3CCC(=O)NC3=O)c2)CC1 (stereo not shown) [Example 56, 2-(4-(2-(4-(7-(6-cyano-5-(trifluoromethyl)pyridin-3-yl)-8-oxo-6-thioxo-5,7-diazaspiro[3.4]octan-5-yl)-2-ethylphenoxy)ethyl)piperazin-1-yl)-N-(3-(2,6-dioxopiperidin-3-ylamino)phenyl)acetamide]",* (0<Y<=25%),< 100
"C[C@@H]1CN(CCOc2ccc(N3C(=S)N(c4ccc(C#N)c(C(F)(F)F)c4)C(=O)C3(C)C)cc2F)CCN1CC(=O)Nc1cccc(NC2CCC(=O)NC2=O)c1 (stereo partly drawn) [Example 277, 2-((R)-4-(2-(4-(3-(4-cyano-3-(trifluoromethyl)phenyl)-5,5-dimethyl-4-oxo-2-thioxoimidazolidin-1-yl)-2-fluorophenoxy)ethyl)-2-methylpiperazin-1-yl)-N-(3-(2,6-dioxopiperidin-3-ylamino)phenyl)acetamide]",*** (35%<Y<50%),< 100
"CC1(C)C(=O)N(c2ccc(C#N)c(C(F)(F)F)c2)C(=S)N1c1ccc(OCCN2CCN(CC(=O)Nc3cc(C#N)cc(NC4CCC(=O)NC4=O)c3)CC2)c(F)c1 (stereo not shown) [Example 65, 2-(4-(2-(4-(3-(4-cyano-3-(trifluoromethyl)phenyl)-5,5-dimethyl-4-oxo-2-thioxoimidazolidin-1-yl)-2-fluorophenoxy)ethyl)piperazin-1-yl)-N-(3-cyano-5-(2,6-dioxopiperidin-3-ylamino)phenyl)acetamide]",** (25%<Y<=35%),100 to 500
"CC1(C)C(=O)N(c2cnc(C#N)c(C(F)(F)F)c2)C(=S)N1c1ccc(OCCN2CCN(CC(=O)Nc3cccc(NC4CCC(=O)NC4=O)c3)CC2)c(CCF)c1 (stereo not shown) [Example 161, 2-(4-(2-(4-(3-(6-cyano-5-(trifluoromethyl)pyridin-3-yl)-5,5-dimethyl-4-oxo-2-thioxoimidazolidin-1-yl)-2-(2-fluoroethyl)phenoxy)ethyl)piperazin-1-yl)-N-(3-(2,6-dioxopiperidin-3-ylamino)phenyl)acetamide]",* (0<Y<=25%),< 100
"CCc1cc(N2C(=S)N(c3ccc(C#N)c(C(F)(F)F)c3)C(=O)C2(C)C)ccc1OCCN1CCN(CC(=O)Nc2cccc(NC3CCC(=O)NC3=O)c2)C2(CC2)C1 (stereo not shown) [Example 98, 2-(7-(2-(4-(3-(4-cyano-3-(trifluoromethyl)phenyl)-5,5-dimethyl-4-oxo-2-thioxoimidazolidin-1-yl)-2-ethylphenoxy)ethyl)-4,7-diazaspiro[2.5]octan-4-yl)-N-(3-(2,6-dioxopiperidin-3-ylamino)phenyl)acetamide]",** (25%<Y<=35%),< 100
"CCc1cc(N2C(=S)N(c3cnc(C#N)c(C(F)(F)F)c3)C(=O)C23CCC3)ccc1OCCN1C[C@@H]2CC[C@H]1CN2CC(=O)Nc1cccc(NC2CCC(=O)NC2=O)c1 (stereo partly drawn) [Example 172, 2-((1S,4S)-5-(2-(4-(7-(6-cyano-5-(trifluoromethyl)pyridin-3-yl)-8-oxo-6-thioxo-5,7-diazaspiro[3.4]octan-5-yl)-2-ethylphenoxy)ethyl)-2,5-diazabicyclo[2.2.2]octan-2-yl)-N-(3-(2,6-dioxopiperidin-3-ylamino)phenyl)acetamide]",*** (35%<Y<50%),100 to 500
"CC(C)c1cc(N2C(=S)N(c3ccc(C#N)c(C(F)(F)F)c3)C(=O)C2(C)C)ccc1OCCN1C[C@@H](C)N(CC(=O)Nc2cc(NC3CCC(=O)NC3=O)ccc2F)[C@@H](C)C1 (stereo partly drawn) [Example 217, 2-((2S,6R)-4-(2-(4-(3-(4-cyano-3-(trifluoromethyl)phenyl)-5,5-dimethyl-4-oxo-2-thioxoimidazolidin-1-yl)-2-isopropylphenoxy)ethyl)-2,6-dimethylpiperazin-1-yl)-N-(5-(2,6-dioxopiperidin-3-ylamino)-2-fluorophenyl)acetamide]",* (0<Y<=25%),500 to 1000
"CCc1cc(N2C(=S)N(c3ccc(C#N)c(C(F)(F)F)c3)C(=O)C2(C)C)ccc1OCCN1C[C@H](C)N(CC(=O)Nc2cc(Cl)cc(NC3CCC(=O)NC3=O)c2)C[C@H]1C (stereo partly drawn) [Example 124, N-(3-chloro-5-(2,6-dioxopiperidin-3-ylamino)phenyl)-2-((2S,5R)-4-(2-(4-(3-(4-cyano-3-(trifluoromethyl)phenyl)-5,5-dimethyl-4-oxo-2-thioxoimidazolidin-1-yl)-2-ethylphenoxy)ethyl)-2,5-dimethylpiperazin-1-yl)acetamide]",* (0<Y<=25%),100 to 500
"C[C@@H]1CN(CCOc2ccc(N3C(=S)N(c4cnc(C#N)c(C(F)(F)F)c4)C(=O)C3(C)C)cc2C(C)(F)F)C[C@H](C)N1CC(=O)Nc1cc(C#N)cc(NC2CCC(=O)NC2=O)c1 (stereo partly drawn) [Example 258, N-(3-cyano-5-(2,6-dioxopiperidin-3-ylamino)phenyl)-2-((2S,6R)-4-(2-(4-(3-(6-cyano-5-(trifluoromethyl)pyridin-3-yl)-5,5-dimethyl-4-oxo-2-thioxoimidazolidin-1-yl)-2-(1,1-difluoroethyl)phenoxy)ethyl)-2.6-dimethylpiperazin-1-yl)acetamide]",* (0<Y<=25%),< 100
"CC(C)c1cc(N2C(=S)N(c3ccc(C#N)c(C(F)(F)F)c3)C(=O)C2(C)C)ccc1OCCN1CCN(CC(=O)Nc2cccc(NC3CCC(=O)NC3=O)c2)[C@H](C(F)(F)F)C1 (stereo partly drawn) [Example 257, 2-((S)-4-(2-(4-(3-(4-cyano-3-(trifluoromethyl)phenyl)-5,5-dimethyl-4-oxo-2-thioxoimidazolidin-1-yl)-2-isopropylphenoxy)ethyl)-2-(trifluoromethyl)piperazin-1-yl)-N-(3-(2,6-dioxopiperidin-3-ylamino)phenyl)acetamide]",*** (35%<Y<50%),500 to 1000
"C[C@@H]1CN(CCOc2ccc(N3C(=S)N(c4ccc(C#N)c(C(F)(F)F)c4)C(=O)C34CCCC4)cc2C2CC2)C[C@H](C)N1CC(=O)Nc1cccc(NC2CCC(=O)NC2=O)c1 (stereo partly drawn) [Example 266, 2-((2S,6R)-4-(2-(4-(3-(4-cyano-3-(trifluoromethyl)phenyl)-4-oxo-2-thioxo-1,3-diazaspiro[4.4]nonan-1-yl)-2-cyclopropylphenoxy)ethyl)-2,6-dimethylpiperazin-1-yl)-N-(3-(2,6-dioxopiperidin-3-ylamino)phenyl)acetamide]",* (0<Y<=25%),< 100
